# Reference: patent US20220185797A1, “SELECTIVE FOXO INHIBITORS FOR TREATMENT OF DIABETES AND OTHER DISORDERS RELATED TO IMPAIRED PANCREATIC FUNCTION” (THE TRUSTEES OF COLUMBIA UNIVERSITYIN THE CITY OF NEW YORK, priority 2019, published 2022)
# Read-outs that look alike come from different tables or passages of the source. Marks after values point to notes of the source that are not given here.
# Assays:
# human FOXO1 = target: T1, human FOXO1 (Homo sapiens, UniProt Q12778); test: FOXO1 transcriptional reporter assay (insulin response element firefly luciferase / Renilla) in HEK293 cells; assay type: cell-based; details: HEK293 cells transfected with human FOXO1, 24 hours, class combines IC50 and maximal inhibition; read-out: IC50 (active range)
# T1 construct: expressed in transfected cells; host or cells: HEK293
# Procedure: The activities of FOXO1 inhibitors were determined by a transcriptional reporter assay. HEK293 cells were plated onto 96-well plates with moat at 20000 cells per well in Eagle's Minimum Essential Medium (EMEM) containing 1% fetal bovine serum, and incubated overnight at 37° C. and 5% CO2. […] Compounds were then added at varying final concentrations ranging from 50 μM to 1 nM, with final DMSO concentration of 0.5% in each well. Duplicate wells were included for each treatment condition. Cells were incubated for 24 hours at 37° C. and 5% CO2. Luciferase activities in each well were measured using Dual-Glo Luciferase Assay System (Promega) according to manufacturer's protocol and a plate reader suitable for luminescence detection. Firefly luciferase activity was divided by Renilla luciferase activity to calculate a ratio for each well. The ratio in wells containing cells transfected with all 3 plasmids listed above and receiving only DMSO without compound addition was set to 100%. The ratio in wells containing cells transfected with plasmids (1), (3), and 5 ng of pcDNA3.1 containing the open reading frame of red fluorescent protein (instead of human FOXO1) and treated with DMSO only was set to 0%. The ratio in each well receiving compound treatment was normalized and expressed as a percentage. Data were fit by 4-parameter logistic regression to determine IC50 and maximal inhibition values. Each compound was tested in a minimum of 2 independent experiments.
# [1] = target: T2, acetylcholinesterase (AChE) (Homo sapiens, UniProt P22303); test: biochemical; assay type: biochemical
# T2 construct: host or cells: CHO cells
# Procedure: The protein source was Human (recombinant) Expressed in CHO cells. The enzymatic activity was studied. The method employed was the detection of conversion of acetylthiocholine to thiocholine using DTNB. The substrate employed was Acetylthiocholine.
# Enzyme and test compound were pre-incubated for 15 minutes at room temp before substrate addition. Acetylthiocholine and DTNB (5,5′-dithiobis-(2-nitrobenzoic acid)) were added and incubated at room temperature for 30 minutes. Signal was detected by measuring absorbance at 405 nm.
# Percentage inhibition was calculated using the following formula: […]
# [2] = Metabolic stability in dog microsomes; details: for % remaining at 45 min: Dog microsome; for metabolic stability compared with Compound 9 (Langlet et al.): dog and/or human microsomes, in words
# [3] = Metabolic stability in human microsomes; details: for % remaining at 45 min: Human microsome
# [4] = Metabolic stability in mouse microsomes; assay type: in vitro ADME; details: for microsomal CLint at 0.75 h, 0.3 μM: CD-1, liver microsomes, pH 7.4, in vitro intrinsic clearance; for microsomal CLint at 0.75 h, 0.3 μM / % remaining at 45 min: Mouse microsome, 0.3 μM; for metabolic stability compared with Compound 10 (Langlet et al.): mouse microsomes, and/or human hepatocytes, in words
# [5] = Metabolic stability in human hepatocytes; details: for % remaining at 90 min: Human hepatocyte, 0.3 μM; for hepatocyte CLint at 1.5 h, 0.3 µM: human, hepatocytes (cryopreserved)
# Procedure: An in vitro system comprising human Hepatocytes was employed. The incubation conditions and sampling time point of test article and positive control were as follows. Test articles (0.3 μM) and positive controls (verapamil) were incubated in a 0.2mL volume in 96-well format. Stock solutions were received at 10 mM in DMSO and the Final DMSO % in incubation was 0.01%. […] Incubation plates were shaken on an automated orbital shaker at 600 rpm. Incubation time points were: 0, 15, 30, 60, 90 minutes.
# Following this pre-incubation period, the test compound (DMSO stock solution) was added to the incubation plate, which was mixed to initiate the incubation. The reaction plate was sampled (20 μL aliquot) at the pre-determined incubation time points, the sample quenched with 80 μL of Stop solution with internal standard (Acetonitrile with 0.1% (v/v) formic acid containing 100 nM labetalol, 20 nM imipramine, and 200 nM diclofenac) and the samples were mixed well. After quenching the reaction, the reaction mixture was centrifuged and the samples were submitted for LC-MS/MS analysis. Depletion rate (kdep, min^−1) and % compound remaining was calculated by peak area ratio (PAR) with internal standard at each time point relative to time 0 min. The estimation of Clint(Unscaled) (in μl/min/10^6 cells) was performed with the following equation:
# [6] = selectivity studies, Table 4, read-out: AChE IC50
# [7] = Human recombinant AChE expressed in CHO cells, read-out: AChE Inhibitor IC50
# T1 sequence (Q12778 whole entry): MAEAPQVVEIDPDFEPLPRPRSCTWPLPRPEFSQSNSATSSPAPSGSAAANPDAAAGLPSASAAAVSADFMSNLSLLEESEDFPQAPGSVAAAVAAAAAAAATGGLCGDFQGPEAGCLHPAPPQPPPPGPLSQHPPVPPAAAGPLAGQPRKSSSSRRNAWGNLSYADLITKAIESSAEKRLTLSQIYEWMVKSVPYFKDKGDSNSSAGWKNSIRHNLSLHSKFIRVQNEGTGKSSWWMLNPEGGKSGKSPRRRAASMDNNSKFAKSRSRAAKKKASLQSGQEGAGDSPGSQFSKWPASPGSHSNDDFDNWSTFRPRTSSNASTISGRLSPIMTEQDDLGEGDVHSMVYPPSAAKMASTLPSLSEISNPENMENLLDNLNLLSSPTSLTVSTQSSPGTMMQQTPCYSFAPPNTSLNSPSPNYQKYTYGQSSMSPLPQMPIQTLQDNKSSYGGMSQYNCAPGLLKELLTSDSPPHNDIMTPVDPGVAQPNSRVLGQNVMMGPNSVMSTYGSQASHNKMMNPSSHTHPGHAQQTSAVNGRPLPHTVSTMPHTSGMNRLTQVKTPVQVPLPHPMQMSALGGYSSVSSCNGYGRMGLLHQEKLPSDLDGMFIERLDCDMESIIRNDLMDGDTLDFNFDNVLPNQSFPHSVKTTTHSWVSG
# T2 sequence (P22303 32-614): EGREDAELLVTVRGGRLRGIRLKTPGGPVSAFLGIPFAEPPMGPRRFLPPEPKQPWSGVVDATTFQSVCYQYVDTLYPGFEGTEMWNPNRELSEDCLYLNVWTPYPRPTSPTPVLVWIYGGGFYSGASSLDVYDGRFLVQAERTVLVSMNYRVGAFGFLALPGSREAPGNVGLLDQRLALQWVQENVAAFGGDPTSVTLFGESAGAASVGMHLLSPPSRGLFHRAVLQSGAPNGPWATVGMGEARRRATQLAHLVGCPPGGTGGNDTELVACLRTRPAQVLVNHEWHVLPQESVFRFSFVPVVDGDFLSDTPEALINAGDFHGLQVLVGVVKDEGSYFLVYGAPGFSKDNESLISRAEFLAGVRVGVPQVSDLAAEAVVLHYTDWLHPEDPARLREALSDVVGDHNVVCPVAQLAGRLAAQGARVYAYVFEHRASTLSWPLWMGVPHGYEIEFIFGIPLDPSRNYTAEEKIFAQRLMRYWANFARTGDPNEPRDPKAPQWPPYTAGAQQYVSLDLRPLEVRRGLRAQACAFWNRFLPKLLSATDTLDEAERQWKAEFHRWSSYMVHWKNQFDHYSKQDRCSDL
structure (smiles),measurement,setting,value
COc1ccc(C(=O)Nc2cc(-c3nc4cc(OC(F)(F)F)ccc4[nH]3)[nH]n2)cc1Cl [Compound 84],IC50,human FOXO1,1000 to 10000 nM
COc1ccc(C(=O)N(C)c2cc(-c3nc4ccccc4[nH]3)n[nH]2)cc1Cl [Compound 37],IC50,[1]; [6],> 10000 nM
COc1ccc(C(=O)Nc2cc(-c3nc4c(C(F)(F)F)cccc4[nH]3)[nH]n2)cc1Cl [Compound 85],IC50,human FOXO1,< 1000 nM
CC(=O)Nc1cc(-c2nc3ccccc3[nH]2)n[nH]1 [Compound 29],IC50,human FOXO1,> 10000 nM
COc1cc(C(=O)Nc2cc(-c3nc4ccccc4[nH]3)n[nH]2)ccc1Cl [Compound 20],% remaining at 45 min,[2],53%
same,metabolic stability compared with Compound 9 (Langlet et al.),[2],significantly more stable
same,"microsomal CLint at 0.75 h, 0.3 μM","[2]; dog, microsomes, pH 7.4",58 µL/min/mg
same,% remaining at 45 min,[3],52%
same,"microsomal CLint at 0.75 h, 0.3 μM","[3]; human, microsomes, pH 7.4",57 µL/min/mg
CC(=O)N1CCN(c2ccc(C(=O)Nc3cc(-c4nc5ccccc5[nH]4)n[nH]3)cc2)CC1 [Compound 35],"microsomal CLint at 0.75 h, 0.3 μM",[4],70 µL/min/mg
same,% remaining at 45 min,[4],44%
same,metabolic stability compared with Compound 10 (Langlet et al.),[4],significantly more stable
same,IC50,human FOXO1,< 1000 nM
COc1ccc(C(=O)Nc2cc(-c3nc4cc(C(F)(F)F)ccc4[nH]3)[nH]n2)cc1Cl [Compound 86],IC50,human FOXO1,< 1000 nM
O=C(Nc1cc(-c2nc3ccccc3[nH]2)n[nH]1)c1ccc(O)c(Cl)c1 [Compound 24],% remaining at 45 min,[2],88%
same,metabolic stability compared with Compound 9 (Langlet et al.),[2],significantly more stable
same,microsomal CLint at 0.3 μM,"[2]; dog, microsomes, pH 7.4",< 20 µL/min/mg
same,% remaining at 45 min,[3],93%
same,microsomal CLint at 0.3 μM,"[3]; human, microsomes, pH 7.4",< 20 µL/min/mg
O=C(Nc1cc(-c2nc3ccccc3[nH]2)[nH]n1)c1ccc(N2CCOCC2)cc1 [Compound 67],IC50,[1]; [7],> 10000 nM
same,"microsomal CLint at 0.75 h, 0.3 μM",[4],52 µL/min/mg
same,% remaining at 45 min,[4],58%
same,metabolic stability compared with Compound 10 (Langlet et al.),[4],significantly more stable
O=C(Nc1cc(-c2nc3ccccc3[nH]2)n[nH]1)c1ccc(N2CCNCC2)cc1 [Compound 36],IC50,[1]; [7],> 10000 nM
same,"microsomal CLint at 0.75 h, 0.3 μM",[4],41 µL/min/mg
same,% remaining at 45 min,[4],68%
same,metabolic stability compared with Compound 10 (Langlet et al.),[4],significantly more stable
same,% remaining at 90 min,[5],110 * %
same,"hepatocyte CLint at 1.5 h, 0.3 µM",[5],2.6 µL/min/1e6 cells
"CN1CCN(c2ccc(C(=O)Nc3cc(-c4nc5ccccc5[nH]4)n[nH]3)cc2)CC1 [Compound 2, reference compound]",IC50,[1]; [6],1710 nM
same,"microsomal CLint at 0.75 h, 0.3 μM",[4],206 µL/min/mg
same,% remaining at 45 min,[4],10%
same,% remaining at 90 min,[5],22%
same,"hepatocyte CLint at 1.5 h, 0.3 µM",[5],18 µL/min/1e6 cells
same,IC50,human FOXO1,< 50 nM
"COc1ccc(C(=O)Nc2cc(-c3nc4ccccc4[nH]3)n[nH]2)cc1Cl [Compound 1, reference compound]",% remaining at 45 min,[2],12%
same,"microsomal CLint at 0.75 h, 0.3 μM","[2]; dog, microsomes, pH 7.4",185 µL/min/mg
same,% remaining at 45 min,[3],3.2%
same,"microsomal CLint at 0.75 h, 0.3 μM","[3]; human, microsomes, pH 7.4",306 µL/min/mg
COc1ccc(C(=O)Nc2cc(-c3nc4c(F)cccc4[nH]3)[nH]n2)cc1Cl [Compound 73],% remaining at 45 min,[2],31%
same,metabolic stability compared with Compound 9 (Langlet et al.),[2],significantly more stable
same,"microsomal CLint at 0.75 h, 0.3 μM","[2]; dog, microsomes, pH 7.4",104 µL/min/mg
same,% remaining at 45 min,[3],13%
same,"microsomal CLint at 0.75 h, 0.3 μM","[3]; human, microsomes, pH 7.4",184 µL/min/mg
Nc1cc(-c2nc3ccccc3[nH]2)n[nH]1 [Compound 32],IC50,human FOXO1,> 10000 nM
CN1CCC(c2ccc(C(=O)Nc3cc(-c4nc5ccccc5[nH]4)n[nH]3)cc2)CC1 [Compound 42],IC50,human FOXO1,< 1000 nM
